The text below walks through data of publication PMC7482410 (ACS Omega, 2020).

In assay [1] the target is human CCL2 (hCCL2-WT, MCP-1) (Homo sapiens, UniProt P13500). Description: intrinsic Trp fluorescence quenching titration. In kind it is binding.
The target of assay [2] is murine CCL2 (mCCL2-WT, MCP-1) (Mus musculus, UniProt P10148). Kind of assay: intrinsic Trp fluorescence quenching titration. In kind it is binding.
Assay [3] concerns the target human CCL2 (hCCL2-P8A, MCP-1) (Homo sapiens, UniProt P13500, P31A). Kind of assay: intrinsic Trp fluorescence quenching titration. In kind it is binding.
For assay [4], the target named is murine CCL2 (mCCL2-P8A, MCP-1) (Mus musculus, UniProt P10148, P31A). Description: intrinsic Trp fluorescence quenching titration. In kind it is binding.
Sequence of murine CCL2 (mCCL2-P8A, MCP-1) (P10148 24-99 P31A limits assumed): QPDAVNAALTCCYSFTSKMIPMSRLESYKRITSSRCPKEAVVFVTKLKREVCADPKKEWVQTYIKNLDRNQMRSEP
Assay [5] addresses DDAH (Pseudomonas aeruginosa) (UniProt Q9I4E3). The conditions noted are these: cited from earlier work.
Assay [6] addresses murine CCL2 wild type (monocyte chemoattractant protein-1) (murine) (UniProt P10148). Description: NMR translational diffusion.

Sequence of DDAH (Q9I4E3 whole entry): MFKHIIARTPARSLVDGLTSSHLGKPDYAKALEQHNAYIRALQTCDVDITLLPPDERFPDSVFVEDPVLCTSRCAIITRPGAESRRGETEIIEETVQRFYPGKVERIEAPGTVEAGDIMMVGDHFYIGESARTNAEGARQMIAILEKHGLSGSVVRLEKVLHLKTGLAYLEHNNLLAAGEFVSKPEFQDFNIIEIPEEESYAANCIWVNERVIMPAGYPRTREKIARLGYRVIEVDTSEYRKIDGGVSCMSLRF
Sequence of human CCL2 (hCCL2-P8A, MCP-1) (P13500 24-99 P31A): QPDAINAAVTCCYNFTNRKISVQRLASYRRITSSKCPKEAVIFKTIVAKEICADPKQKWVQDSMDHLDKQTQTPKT
Sequence of murine CCL2 (mCCL2-WT, MCP-1) (P10148 24-99 limits assumed): as the sequence (P10148 24-99 P31A limits assumed) above, with A8P counted along it
Sequence of human CCL2 (hCCL2-WT, MCP-1) (P13500 24-99): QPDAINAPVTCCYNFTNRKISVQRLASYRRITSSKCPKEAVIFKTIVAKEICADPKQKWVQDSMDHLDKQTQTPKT

As to `O=C(O)[C@H]1O[C@@H](Oc2cc3oc(-c4ccccc4)cc(=O)c3c(O)c2O)[C@H](O)[C@@H](O)[C@@H]1O` [BA], the Kd in assay [1] is 250 ± 20 nM; in assay [2], 290 ± 20 nM; in assay [3], 260 ± 20 nM; in assay [4], 270 ± 20 nM.

DDAH (from UniProt Q9I4E3): in assay [5], the equilibrium dissociation constant (Kd) is 500 nM.

Consider “murine CCL2 wild type (monocyte chemoattractant protein-1) (from UniProt P10148 24-148) (natural protein)”, for which the stoichiometry N in assay [6] is 2.

The Kd is a measure of binding affinity in units of concentration. One may read the stoichiometry N as the number of molecules, sites or subunits per partner or assembly.
